This is an account of results in patent US20250136606A1, “MODULATORS OF TRPML, THEIR COMPOSITIONS AND METHODS OF USE” (Caraway Therapeutics, Inc., priority 2021, published 2025).

Each structure is given as a SMILES string.

Holding throughout (assay type): cell-based
Common to all, as to details: fluorescent calcium assay

One assay deals with T1, TRPML2 (Homo sapiens, UniProt Q8IZK6).
T1 construct: expressed in transfected cells
T1 sequence (Q8IZK6 1-566): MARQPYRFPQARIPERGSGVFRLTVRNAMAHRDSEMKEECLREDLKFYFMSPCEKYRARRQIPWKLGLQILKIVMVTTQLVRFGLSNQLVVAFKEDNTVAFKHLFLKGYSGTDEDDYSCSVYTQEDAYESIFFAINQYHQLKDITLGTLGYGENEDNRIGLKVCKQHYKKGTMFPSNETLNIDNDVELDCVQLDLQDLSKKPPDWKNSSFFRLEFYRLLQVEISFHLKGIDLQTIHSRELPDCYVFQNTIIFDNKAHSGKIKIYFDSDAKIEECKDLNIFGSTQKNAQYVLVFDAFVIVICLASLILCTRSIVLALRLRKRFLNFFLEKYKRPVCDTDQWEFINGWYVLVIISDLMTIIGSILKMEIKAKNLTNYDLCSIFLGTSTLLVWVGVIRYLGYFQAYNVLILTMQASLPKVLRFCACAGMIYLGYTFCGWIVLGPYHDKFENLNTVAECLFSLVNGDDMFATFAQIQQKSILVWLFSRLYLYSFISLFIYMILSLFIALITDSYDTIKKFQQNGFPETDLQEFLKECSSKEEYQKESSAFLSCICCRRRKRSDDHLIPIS
The assay is described as follows: Fluorescent TRPML2 assay (performed as for TRPML1, substituting the TRPML2 subtype). Summed up: (§1)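 HEK-293 Trex cells with doxycycline-induced (0.5 ug/mL) surface-directed human TRPML subtype, loaded with 1 μM Fluo4-AM, resuspended in Ringer's with 10 mM calcium. Compounds at 20 μM to 6 nM final in half-log steps, triplicate; fluorescence ex 480/em 540; EC50 by non-linear regression versus plate controls.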

The next assay concerns the target TRPML1 (Homo sapiens, UniProt Q9GZU1). The assay is described as follows: Fluorescent TRPML1 assay (Fluo4-AM calcium fluorescence in doxycycline-induced HEK-293 Trex cells). A digest of the protocol:
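EC50 values come from non-linear regression of percent activity, normalized to on-plate positive and negative controls, with fluorescence read at 480 nm excitation and 540 nm emission. Fluo4-AM-loaded (1 µM) doxycycline-induced HEK-293 Trex cells expressing mutated human TRPML1 were exposed in 10 mM calcium Ringer's to 6 nM–20 µM compound, in triplicate.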

The target in a further assay is T2, TRPML3 (Homo sapiens, UniProt Q8TDD5).
T2 construct: expressed in transfected cells
T2 sequence (Q8TDD5 1-553): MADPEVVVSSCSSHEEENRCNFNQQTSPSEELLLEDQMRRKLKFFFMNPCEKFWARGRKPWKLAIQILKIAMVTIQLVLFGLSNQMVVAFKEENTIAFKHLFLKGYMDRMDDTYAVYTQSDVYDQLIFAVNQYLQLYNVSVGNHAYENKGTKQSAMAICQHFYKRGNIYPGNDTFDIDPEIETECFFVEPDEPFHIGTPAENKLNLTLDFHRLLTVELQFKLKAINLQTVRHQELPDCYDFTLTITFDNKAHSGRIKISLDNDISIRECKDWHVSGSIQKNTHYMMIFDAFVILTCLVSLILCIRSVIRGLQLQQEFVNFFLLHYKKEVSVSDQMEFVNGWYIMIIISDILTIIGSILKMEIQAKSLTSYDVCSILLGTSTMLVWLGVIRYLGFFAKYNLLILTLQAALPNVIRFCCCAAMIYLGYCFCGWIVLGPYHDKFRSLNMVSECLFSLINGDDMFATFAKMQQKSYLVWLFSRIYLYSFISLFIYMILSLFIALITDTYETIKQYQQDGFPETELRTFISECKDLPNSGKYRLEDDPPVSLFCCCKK
Kind of assay: Fluorescent TRPML3 assay (performed as for TRPML1, substituting the TRPML3 subtype). Summed up:
as §1

As usually defined, the EC50 is the concentration giving half of the maximal effect.

Chain of TRPML1 (Q9GZU1 whole entry L15A/L16A/L577A/L578A, form open): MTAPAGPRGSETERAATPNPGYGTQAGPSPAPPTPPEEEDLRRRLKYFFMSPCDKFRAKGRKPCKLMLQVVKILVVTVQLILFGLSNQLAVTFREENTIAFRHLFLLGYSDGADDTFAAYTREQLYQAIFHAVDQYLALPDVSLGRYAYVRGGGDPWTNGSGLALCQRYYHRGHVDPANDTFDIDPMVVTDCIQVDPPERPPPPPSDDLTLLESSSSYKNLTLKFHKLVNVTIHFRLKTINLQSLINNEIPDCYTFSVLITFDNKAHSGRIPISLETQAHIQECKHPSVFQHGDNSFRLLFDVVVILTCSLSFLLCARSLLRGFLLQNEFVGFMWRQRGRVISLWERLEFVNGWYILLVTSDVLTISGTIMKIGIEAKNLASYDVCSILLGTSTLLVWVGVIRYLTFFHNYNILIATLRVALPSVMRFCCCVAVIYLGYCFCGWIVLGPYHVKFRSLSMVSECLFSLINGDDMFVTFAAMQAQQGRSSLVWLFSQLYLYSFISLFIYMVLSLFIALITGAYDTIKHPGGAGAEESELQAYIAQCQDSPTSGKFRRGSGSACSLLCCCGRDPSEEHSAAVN

Regarding `C[C@H]1CN(C(=O)OC(C)(C)C)CCN1c1ncnc2c1c(C1=CCOCC1)cn2-c1cccc(F)c1` [Compound 472, tert-butyl (S)-4-(5-(3,6-dihydro-2H-pyran-4-yl)-7-(3-fluorophenyl)-7H-pyrrolo[2,3-d]pyrimidin-4-yl)-3-methylpiperazine-1-carboxylate], the EC50 is 500 to 2000 nM at TRPML2, 100 to 500 nM on TRPML1 and 100 to 500 nM at TRPML3.

For the molecule `C[C@H]1CN(C(=O)OC(C)(C)C)CCN1c1ncnc2c1c(C1=CCOCC1)cn2-c1cc(F)cc(F)c1` [Compound 473, tert-butyl (S)-4-(7-(3,5-difluorophenyl)-5-(3,6-dihydro-2H-pyran-4-yl)-7H-pyrrolo[2,3-d]pyrimidin-4-yl)-3-methylpiperazine-1-carboxylate], the concentration for a half-maximal effect (EC50) at TRPML2 lay within 500 to 2000 nM; at TRPML1 it was 100 to 500 nM; on TRPML3 it was 100 to 500 nM.

On to `C[C@H]1CN(C(=O)OC(C)(C)C)CCN1c1ncnc2c1c(C1COC1)cn2-c1cccc(F)c1` [Compound 474, tert-butyl (S)-4-(7-(3-fluorophenyl)-5-(oxetan-3-yl)-7H-pyrrolo[2,3-d]pyrimidin-4-yl)-3-methylpiperazine-1-carboxylate], for which the EC50 on TRPML2, at TRPML1 and on TRPML3 was over 2000 nM throughout.

With `C[C@H]1CN(C(=O)OC(C)(C)C)CCN1c1ncnc2c1c(C1COC1)cn2-c1cc(F)cc(F)c1` [Compound 475, tert-butyl (S)-4-(7-(3,5-difluorophenyl)-5-(oxetan-3-yl)-7H-pyrrolo[2,3-d]pyrimidin-4-yl)-3-methylpiperazine-1-carboxylate], the half-maximal effective concentration (EC50) at TRPML2 is over 2000 nM; at TRPML1, 500 to 2000 nM; on TRPML3, 100 to 500 nM.

Take `Cc1cn(-c2cc(C#N)ccn2)c2ncnc(N3CCN(C(=O)OC(C)(C)C)C[C@@H]3C)c12` [Compound 476, tert-butyl (S)-4-(7-(4-cyanopyridin-2-yl)-5-methyl-7H-pyrrolo [2,3-d]pyrimidin-4-yl)-3-methylpiperazine-1-carboxylate]: the EC50 at TRPML2, on TRPML1 and at TRPML3 was under 100 nM in each case.

`Cc1cn(-c2cc(C#N)ccn2)c2ncnc(N3C[C@@H](C)N(C(=O)OC(C)(C)C)C[C@@H]3C)c12` [Compound 477, tert-butyl (2R,5S)-4-(7-(4-cyanopyridin-2-yl)-5-methyl-7H-pyrrolo[2,3-d]pyrimidin-4-yl)-2,5-dimethylpiperazine-1-carboxylate]: the concentration giving a half-maximal response (EC50) on TRPML2, on TRPML1 and at TRPML3 was under 100 nM in each case.

In the case of `CCc1cn(-c2cc(C#N)ccn2)c2ncnc(N3CCN(C(=O)OC(C)(C)C)C[C@@H]3C)c12` [Compound 478, tert-butyl (S)-4-(7-(4-cyanopyridin-2-yl)-5-ethyl-7H-pyrrolo[2,3-d]pyrimidin-4-yl)-3-methylpiperazine-1-carboxylate], the concentration giving a half-maximal response (EC50) on TRPML2, on TRPML1 and on TRPML3 was under 100 nM throughout.

Take `CCc1cn(-c2cc(C#N)ccn2)c2ncnc(N3C[C@@H](C)N(C(=O)OC(C)(C)C)C[C@@H]3C)c12` [Compound 479, tert-butyl (2R,5S)-4-(7-(4-cyanopyridin-2-yl)-5-ethyl-7H-pyrrolo[2,3-d]pyrimidin-4-yl)-2,5-dimethylpiperazine-1-carboxylate]: the EC50 on TRPML2, at TRPML1 and on TRPML3 was under 100 nM each time.

In the case of `Cc1cn(-c2cc(F)ccn2)c2ncnc(N3C[C@@H](C)N(C(=O)OC(C)(C)C)C[C@@H]3C)c12` [Compound 480, tert-butyl (2R,5S)-4-(7-(4-fluoropyridin-2-yl)-5-methyl-7H-pyrrolo[2,3-d]pyrimidin-4-yl)-2,5-dimethylpiperazine-1-carboxylate], the half-maximal effective concentration (EC50) on TRPML2 is 500 to 2000 nM; on TRPML1, under 100 nM; at TRPML3, under 100 nM.

Take `C[C@H]1CN(C(=O)OC(C)(C)C)CCN1c1ncnc2c1c(C(F)(F)F)cn2-c1cc(C#N)ccn1` [Compound 481, tert-butyl (S)-4-(7-(4-cyanopyridin-2-yl)-5-(trifluoromethyl)-7H-pyrrolo[2,3-d]pyrimidin-4-yl)-3-methylpiperazine-1-carboxylate]: the EC50 at TRPML2, on TRPML1 and on TRPML3 was under 100 nM in each case.

As for `CC(C)(C)OC(=O)N1CCCN(c2ncnc3c2c(C2CC2)cn3-c2cc(C#N)ccn2)CCC1` [Compound 482, tert-butyl 5-(7-(4-cyanopyridin-2-yl)-5-cyclopropyl-7H-pyrrolo[2,3-d]pyrimidin-4-yl)-1,5-diazocane-1-carboxylate], the 50% effective concentration (EC50) was 100 to 500 nM at TRPML2, under 100 nM on TRPML1 and under 100 nM on TRPML3.

For the molecule `C[C@@H]1CN(c2ncnc3c2c(C(F)(F)F)cn3-c2cc(C#N)ccn2)[C@@H](C)CN1C(=O)OC(C)(C)C` [Compound 483, tert-butyl (2R,5S)-4-(7-(4-cyanopyridin-2-yl)-5-(trifluoromethyl)-7H-pyrrolo[2,3-d]pyrimidin-4-yl)-2,5-dimethylpiperazine-1-carboxylate], the EC50 at TRPML2, on TRPML1 and on TRPML3 was under 100 nM in each case.

Regarding `C[C@H]1CN(C(=O)OC(C)(C)C)CCN1c1ncnc2c1c(C(C)(C)O)cn2-c1cc(C#N)ccn1` [Compound 484, tert-butyl (S)-4-(7-(4-cyanopyridin-2-yl)-5-(2-hydroxypropan-2-yl)-7H-pyrrolo[2,3-d]pyrimidin-4-yl)-3-methylpiperazine-1-carboxylate], the EC50 on TRPML2 is 100 to 500 nM; on TRPML1, under 100 nM; on TRPML3 it was under 100 nM.

Take `C[C@H]1CN(C(=O)OC(C)(C)C)CCN1c1ncnc2c1c(N1CCCC1)cn2-c1ncc(C#N)s1` [Compound 485, tert-butyl (S)-4-(7-(5-cyanothiazol-2-yl)-5-(pyrrolidin-1-yl)-7H-pyrrolo[2,3-d]pyrimidin-4-yl)-3-methylpiperazine-1-carboxylate]: the 50% effective concentration (EC50) is 500 to 2000 nM on TRPML2, under 100 nM at TRPML1 and 500 to 2000 nM at TRPML3.

As for `CCN(CCOC)c1cn(-c2cc(C#N)ccn2)c2ncnc(N3CCN(C(=O)OC(C)(C)C)C[C@@H]3C)c12` [Compound 486, tert-butyl (S)-4-(7-(4-cyanopyridin-2-yl)-5-(ethyl(2-methoxyethyl)amino)-7H-pyrrolo[2,3-d]pyrimidin-4-yl)-3-methylpiperazine-1-carboxylate], the EC50 at TRPML2 was 100 to 500 nM; on TRPML1, under 100 nM; at TRPML3, under 100 nM.

In the case of `CCCOc1cn(-c2cc(C#N)ccn2)c2ncnc(N3CCN(C(=O)OC(C)(C)C)C[C@@H]3C)c12` [Compound 487, tert-butyl (S)-4-(7-(4-cyanopyridin-2-yl)-5-propoxy-7H-pyrrolo[2,3-d]pyrimidin-4-yl)-3-methylpiperazine-1-carboxylate], the EC50 at TRPML2, on TRPML1 and on TRPML3 was under 100 nM in each case.

Consider `C[C@@H]1CN(c2ncnc3c2c(N2CCC2)cn3-c2cc(C#N)ccn2)[C@@H](C)CN1C(=O)OC(C)(C)C` [Compound 489, tert-butyl (2R,5S)-4-(5-(azetidin-1-yl)-7-(4-cyanopyridin-2-yl)-7H-pyrrolo[2,3-d]pyrimidin-4-yl)-2,5-dimethylpiperazine-1-carboxylate], for which the concentration for a half-maximal effect (EC50) on TRPML2, at TRPML1 and on TRPML3 was under 100 nM each time.
